In patent US8063075B2, “Pyrrolidine ether derivatives as NK3 receptor antagonists” (Hoffmann-La Roche Inc., priority 2008, dated 2011):

Biological target: T1, recombinant human NK3 receptor (Homo sapiens, UniProt P29371)
T1 construct: expressed in transfected cells; host or cells: HEK293 cells (transient expression), membranes
T1 sequence (P29371 1-465): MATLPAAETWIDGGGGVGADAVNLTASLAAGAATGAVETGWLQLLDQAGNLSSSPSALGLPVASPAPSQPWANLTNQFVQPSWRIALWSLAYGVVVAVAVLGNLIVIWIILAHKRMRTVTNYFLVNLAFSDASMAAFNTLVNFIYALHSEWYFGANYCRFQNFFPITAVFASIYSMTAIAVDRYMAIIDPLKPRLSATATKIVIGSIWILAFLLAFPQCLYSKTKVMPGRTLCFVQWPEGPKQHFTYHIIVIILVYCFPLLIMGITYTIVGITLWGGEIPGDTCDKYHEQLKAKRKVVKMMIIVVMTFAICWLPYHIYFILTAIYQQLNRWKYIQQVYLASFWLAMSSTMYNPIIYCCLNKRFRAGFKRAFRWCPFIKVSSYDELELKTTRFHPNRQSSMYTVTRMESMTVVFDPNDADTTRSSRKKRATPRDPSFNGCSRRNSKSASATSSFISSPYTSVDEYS
Test: [3H]SR142801 competition binding assay
Conditions: membranes from HEK293 cells transiently expressing hNK3; [3H]SR142801 at its KD; 75 min RT; read-out: Data [μM] (affinity constant Ki, hNK3 receptor binding)
Protocol: [^3H]SR142801 Competition Binding Assay
hNK3 receptor binding experiment were performed using [^3H]SR142801 (Catalog No. TRK1035, specific activity: 74.0 Ci/mmol, Amersham, GE Healthcare UK limited, Buckinghamshire, UK) and membrane isolated from HEK293 cells transiently expressing recombinant human NK3 receptor. After thawing, the membrane homogenates were centrifuged at 48,000×g for 10 min at 4° C., the pellets were resuspended in the 50 mM Tris-HCl, 4 mM MnCl2, 1 μM phosphoramidon, 0.1% BSA binding buffer at pH 7.4 to a final assay concentration of 5 μg protein/well. […] At the end of the incubation, membranes were filtered onto unitfilter (96-well white microplate with bonded GF/C filter preincubated 1 h in 0.3% PEI+0.3% BSA, Packard BioScience, Meriden, Conn.) with a Filtermate 196 harvester (Packard BioScience) and washed 4 times with ice-cold 50 mM Tris-HCl, pH 7.4 buffer. Nonspecific binding was measured in the presence of 10 μM SB222200 for both radioligands. The radioactivity on the filter was counted (5 min) on a Packard Top-count microplate scintillation counter with quenching correction after addition of 45 μl of microscint 40 (Can berra Packard S. A., Zürich, Switzerland) and shaking for 1 h. Inhibition curves were fitted according to the Hill equation: y=100/(1+(x/IC50)^nH), where nH=slope factor using Excel-fit 4 software (Microsoft). IC50 values were derived from the inhibition curve and the affinity constant (Ki) values were calculated using the Cheng-Prussoff equation Ki=IC50/(1+[L]/KD) where [L] is the concentration of radioligand and KD is its dissociation constant at the receptor, derived from the saturation isotherm. All experiments were performed in duplicate and the mean±standard error (SEM) of the individual Ki values was calculated.

Row | Compound | Ki
1 | CC(=O)N1CCC(C(=O)N2C[C@H]([C@H](C)Oc3ccc(Cl)cn3)[C@@H](c3ccc(Cl)c(Cl)c3)C2)CC1 (racemic) [Example 1, 1-{4-[(3RS,4SR)-3-[(SR)-1-(5-Chloro-pyridin-2-yloxy)-ethyl]-4-(3,4-dichloro-phenyl)-pyrrolidine-1-carbonyl]-piperidin-1-yl}-ethanone] | 0.0047 µM
2 | CC(=O)N1CCC(C(=O)N2C[C@H]([C@H](C)Oc3ccc(C#N)cn3)[C@@H](c3ccc(Cl)c(Cl)c3)C2)CC1 (racemic) [Example 2, 6-{(SR)-1-[(3RS,4SR)-1-(1-Acetyl-piperidine-4-carbonyl)-4-(3,4-dichloro-phenyl)-pyrrolidin-3-yl]-ethoxy}-nicotinonitrile] | 0.0076 µM
3 | C[C@H](Oc1ccc(Cl)cn1)[C@H]1CN(C(=O)C2CCN(C(=O)C3CCC3)CC2)C[C@@H]1c1ccc(Cl)c(Cl)c1 (racemic) [Example 3, [(3RS,4SR)-3-[(SR)-1-(5-Chloro-pyridin-2-yloxy)-ethyl]-4-(3,4-dichloro-phenyl)-pyrrolidin-1-yl]-(1-cyclobutanecarbonyl-piperidin-4-yl)-methanone] | 0.0012 µM
4 | COC(=O)N[C@H]1CC[C@H](C(=O)N2C[C@H]([C@H](C)Oc3ccc(Cl)cn3)[C@@H](c3ccc(Cl)c(Cl)c3)C2)CC1 (racemic) [Example 5, {4-[(3RS,4SR)-3-[(SR)-1-(5-Chloro-pyridin-2-yloxy)-ethyl]-4-(3,4-dichloro-phenyl)-pyrrolidine-1-carbonyl]-cyclohexyl}-carbamic acid methyl ester] | 0.0095 µM
5 | COC[C@H]1CC[C@H](C(=O)N2C[C@H]([C@H](C)Oc3ccc(Cl)cn3)[C@@H](c3ccc(Cl)c(Cl)c3)C2)CC1 (racemic) [Example 6, [(3RS,4SR)-3-[(SR)-1-(5-Chloro-pyridin-2-yloxy)-ethyl]-4-(3,4-dichloro-phenyl)-pyrrolidin-1-yl]-(4-methoxymethyl-cyclohexyl)-methanone] | 0.0058 µM
6 | C#C[C@H]1CC[C@H](C(=O)N2C[C@H]([C@H](C)Oc3ccc(Cl)cn3)[C@@H](c3ccc(Cl)c(Cl)c3)C2)CC1 (racemic) [Example 10, [(3RS,4SR)-3-[(SR)-1-(5-Chloro-pyridin-2-yloxy)-ethyl]-4-(3,4-dichloro-phenyl)-pyrrolidin-1-yl]-(4-ethynyl-cyclohexyl)-methanone] | 0.009 µM
7 | CC(C)CN1CCC(C(=O)N2C[C@H]([C@H](C)Oc3ccc(Cl)cn3)[C@@H](c3ccc(Cl)c(Cl)c3)C2)CC1 (racemic) [Example 11, [(3RS,4SR)-3-[(SR)-1-(5-Chloro-pyridin-2-yloxy)-ethyl]-4-(3,4-dichloro-phenyl)-pyrrolidin-1-yl]-(1-isobutyl-piperidin-4-yl)-methanone] | 0.0061 µM
8 | C[C@H](Oc1ccc(Cl)cn1)[C@H]1CN(C(=O)C2CCC(=O)CC2)C[C@@H]1c1ccc(Cl)c(Cl)c1 (racemic) [Example 12, 4-[(3RS,4SR)-3-[(SR)-1-(5-Chloro-pyridin-2-yloxy)-ethyl]-4-(3,4-dichloro-phenyl)-pyrrolidine-1-carbonyl]-cyclohexanone] | 0.0092 µM
9 | C[C@H](Oc1ccc(C#N)cn1)[C@H]1CN(C(=O)C2CCN(C(=O)OC(C)(C)C)CC2)C[C@@H]1c1ccc(Cl)c(Cl)c1 (racemic) [Example 13, 4-[(3RS,4SR)-3-[(SR)-1-(5-Cyano-pyridin-2-yloxy)-ethyl]-4-(3,4-dichloro-phenyl)-pyrrolidine-1-carbonyl]-piperidine-1-carboxylic acid tert-butyl ester] | 0.0044 µM
10 | C[C@H](Oc1ccc(C#N)cn1)[C@H]1CN(C(=O)C2CCN(C(=O)C3CC3)CC2)C[C@@H]1c1ccc(Cl)c(Cl)c1 (racemic) [Example 14, 6-{(SR)-1-[(3RS,4SR)-1-(1-Cyclopropanecarbonyl-piperidine-4-carbonyl)-4-(3,4-dichloro-phenyl)-pyrrolidin-3-yl]-ethoxy}-nicotinonitrile] | 0.0049 µM
11 | C[C@H](Oc1ccc(C#N)cn1)[C@H]1CN(C(=O)C2CCN(C(=O)C3(C)CC3)CC2)C[C@@H]1c1ccc(Cl)c(Cl)c1 (racemic) [Example 17, 6-((SR)-1-{(3RS,4SR)-4-(3,4-Dichloro-phenyl)-1-[1-(1-methyl-cyclopropanecarbonyl)-piperidine-4-carbonyl]-pyrrolidin-3-yl}-ethoxy)-nicotinonitrile] | 0.0046 µM

Now from value to compound:

Row | Ki | Compound
12 | 0.0077 µM | C[C@H](Oc1ccc(C#N)cn1)[C@H]1CN(C(=O)C2CCN(C(=O)C3(N)CC3)CC2)C[C@@H]1c1ccc(Cl)c(Cl)c1 (racemic) [Example 19, 6-{(SR)-1-[(3RS,4SR)-1-[1-(1-Amino-cyclopropanecarbonyl)-piperidine-4-carbonyl]-4-(3,4-dichloro-phenyl)-pyrrolidin-3-yl]-ethoxy}-nicotinonitrile]
13 | 0.0026 µM | C[C@H](Oc1ccc(C#N)cn1)[C@H]1CN(C(=O)C2CCN(C(=O)C3CCC3)CC2)C[C@@H]1c1ccc(Cl)c(Cl)c1 (racemic) [Example 20, 6-{(SR)-1-[(3RS,4SR)-1-(1-Cyclobutanecarbonyl-piperidine-4-carbonyl)-4-(3,4-dichloro-phenyl)-pyrrolidin-3-yl]-ethoxy}-nicotinonitrile]
14 | 0.0021 µM | C[C@H](Oc1ccc(C#N)cn1)[C@H]1CN(C(=O)C2CCN(C(=O)C3CC(=O)C3)CC2)C[C@@H]1c1ccc(Cl)c(Cl)c1 (racemic) [Example 21, 6-((SR)-1-{(3RS,4SR)-4-(3,4-Dichloro-phenyl)-1-[1-(3-oxo-cyclobutanecarbonyl)-piperidine-4-carbonyl]-pyrrolidin-3-yl}-ethoxy)-nicotinonitrile]
15 | 0.0036 µM | CCC(=O)N1CCC(C(=O)N2C[C@H]([C@H](C)Oc3ccc(C#N)cn3)[C@@H](c3ccc(Cl)c(Cl)c3)C2)CC1 (racemic) [Example 22, 6-{(SR)-1-[(3RS,4SR)-4-(3,4-Dichloro-phenyl)-1-(1-propionyl-piperidine-4-carbonyl)-pyrrolidin-3-yl]-ethoxy}-nicotinonitrile]
16 | 0.0075 µM | C[C@H](Oc1ccc(C#N)cn1)[C@H]1CN(C(=O)C2CCN(C(=O)CC#N)CC2)C[C@@H]1c1ccc(Cl)c(Cl)c1 (racemic) [Example 23, 6-{(SR)-1-[(3RS,4SR)-1-[1-(2-Cyano-acetyl)-piperidine-4-carbonyl]-4-(3,4-dichloro-phenyl)-pyrrolidin-3-yl]-ethoxy}-nicotinonitrile]
17 | 0.0036 µM | COCC(=O)N1CCC(C(=O)N2C[C@H]([C@H](C)Oc3ccc(C#N)cn3)[C@@H](c3ccc(Cl)c(Cl)c3)C2)CC1 (racemic) [Example 24, 6-((SR)-1-{(3RS,4SR)-4-(3,4-Dichloro-phenyl)-1-[1-(2-methoxy-acetyl)-piperidine-4-carbonyl]-pyrrolidin-3-yl}-ethoxy)-nicotinonitrile]
18 | 0.0028 µM | C[C@H](Oc1ccc(C#N)cn1)[C@H]1CN(C(=O)[C@H]2CC[C@H](N(C)C(=O)OC(C)(C)C)CC2)C[C@@H]1c1ccc(Cl)c(Cl)c1 (racemic) [Example 42, {4-[(3RS,4SR)-3-[(SR)-1-(5-Cyano-pyridin-2-yloxy)-ethyl]-4-(3,4-dichloro-phenyl)-pyrrolidine-1-carbonyl]-cyclohexyl}-methyl-carbamic acid tert-butyl ester]
